Read-outs that look alike come from different tables or passages of the source.
Assays:
Experiment in all cases: MTT cell proliferation assay
Assay type in all cases: cell-based
[1] = tested on: 3T3 cells; conditions: Mus musculus, NIH3T3, approximately 64-72 hours incubation
How it was run: (§1)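 Cytotoxicity was measured by MTT: OD490 of the solubilized formazan after roughly 4 h with MTT reagent, reported as mean percent inhibition relative to the negative control. Test compounds covered eight concentrations between 1 nM and 30 μM, added to 5,000–10,000 cells per well that had attached overnight.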

[2] = tested on: MS751 cells; conditions: Homo sapiens, MS751, MS751 cells, approximately 64-72 hours incubation
How it was run: as §1

[3] = tested on: Z138 cells; conditions: Homo sapiens, Z-138, Z138 cells, approximately 64-72 hours incubation
How it was run: as §1

[4] = read-out: MTT Assay IC50, MS-751
[5] = read-out: MTT Assay IC50, Z-138
[6] = read-out: MTT Assay IC50 MS-751

Structure (SMILES): Nc1ccc(/C=C/C(=O)NCc2coc3c(Cl)cc(-c4ccc(C(=O)N5CCC(F)(F)CC5)cn4)cc23)cn1 [Compound 766, (E)-3-(6-aminopyridin-3-yl)-N-((7-chloro-5-(5-(4,4-difluoropiperidine-1-carbonyl)pyridin-2-yl)benzofuran-3-yl)methyl)acrylamide]
- IC50 ([1]; read-out: MTT Assay IC50, 3T3): 5 to 10 µM
- IC50 [2, 4]: 0.1 to 5 µM
- IC50 [3, 5]: 0.1 to 5 µM

Structure (SMILES): Nc1ccc(/C=C/C(=O)NCc2cc3cc(-c4cccc(OC(=O)N5CCOCC5)c4)cc(C(F)(F)F)c3o2)cn1 [Compound 558, (E)-3-(2-((3-(6-aminopyridin-3-yl)acrylamido)methyl)-7-(trifluoromethyl)benzofuran-5-yl)phenyl morpholine-4-carboxylate]
- IC50 ([1]; read-out: MTT Assay IC50 3T3): > 10 µM
- IC50 [2, 6]: > 10 µM
- IC50 ([3]; read-out: MTT Assay IC50 Z-138): > 10 µM

Structure (SMILES): CC1(F)CCN(C(=O)c2ccc(-c3cc(C(F)(F)F)c4oc(CNC(=O)/C=C\c5ccc(N)nc5)cc4c3)nc2)C1 (single isomer, unassigned) [Compound 657, (Z)-3-(6-aminopyridin-3-yl)-N-((5-(5-(3-fluoro-3-methylpyrrolidine-1-carbonyl)pyridin-2-yl)-7-(trifluoromethyl)benzofuran-2-yl)methyl)acrylamide]
- IC50 ([1]; read-out: MTT Assay IC50, 3T3): > 10 µM
- IC50 [2, 4]: 0.1 to 5 µM
- IC50 [3, 5]: 0.1 to 5 µM

Structure (SMILES): CC(=O)c1ccc(-c2cc(Cl)c3oc(CNC(=O)/C=C/c4ccc(N)nc4)cc3c2)s1 [Compound 500, (E)-N-((5-(5-acetylthiophen-2-yl)-7-chlorobenzofuran-2-yl)methyl)-3-(6-aminopyridin-3-yl) acrylamide]
- IC50 ([1]; read-out: MTT Assay IC50 3T3): > 10 µM
- IC50 [2, 6]: 0.1 to 5 µM
- IC50 ([3]; read-out: MTT Assay IC50 Z-138): 0.1 to 5 µM

Structure (SMILES): Nc1ccc(/C=C/C(=O)NCc2cc3cc(-c4cnc(C(=O)N5CCOCC5)c(F)c4)cc(Cl)c3o2)cn1 [Compound 544, (E)-3-(6-aminopyridin-3-yl)-N-((7-chloro-5-(5-fluoro-6-(morpholine-4-carbonyl)pyridin-3-yl)benzofuran-2-yl)methyl)acrylamide]
- IC50 ([1]; read-out: MTT Assay IC50 3T3): > 10 µM
- IC50 [2, 6]: 0.1 to 5 µM
- IC50 ([3]; read-out: MTT Assay IC50 Z-138): 0.1 to 5 µM

Structure (SMILES): CC1(C)CN(C(=O)c2ccc(-c3cc(Cl)c4oc(CNC(=O)/C=C/c5ccc(N)nc5)cc4c3)cc2)C1 [Compound 529, (E)-3-(6-aminopyridin-3-yl)-N-((7-chloro-5-(4-(3,3-dimethylazetidine-1-carbonyl)phenyl)benzofuran-2-yl)methyl)acrylamide]
- IC50 ([1]; read-out: MTT Assay IC50 3T3): > 10 µM
- IC50 [2, 6]: 5 to 10 µM
- IC50 ([3]; read-out: MTT Assay IC50 Z-138): 0.1 to 5 µM

Structure (SMILES): O=C(/C=C/c1cccnc1)NCc1cc2cc(-c3ccc(C(=O)N4CCC(F)(F)CC4)cc3)cc(C(F)(F)F)c2o1 [Compound 682, (E)-N-((5-(4-(4,4-difluoropiperidine-1-carbonyl)phenyl)-7-(trifluoromethyl)benzofuran-2-yl)methyl)-3-(pyridin-3-yl)acrylamide]
- IC50 ([1]; read-out: MTT Assay IC50, 3T3): 0.1 to 5 µM
- IC50 [2, 4]: 0.1 to 5 µM
- IC50 [3, 5]: 0.1 to 5 µM

Structure (SMILES): Nc1ccc(/C=C/C(=O)NCc2cc3cc(-c4ccc(C(=O)N5CCC(F)(F)CC5)cc4F)cc(C(F)(F)F)c3o2)cn1 [Compound 683, (E)-3-(6-aminopyridin-3-yl)-N-((5-(4-(4,4-difluoropiperidine-1-carbonyl)-2-fluorophenyl)-7-(trifluoromethyl)benzofuran-2-yl)methyl)acrylamide]
- IC50 ([1]; read-out: MTT Assay IC50, 3T3): > 10 µM
- IC50 [2, 4]: 0.1 to 5 µM
- IC50 [3, 5]: 0.1 to 5 µM

Structure (SMILES): CC1(O)CCN(C(=O)c2ccc(-c3cc(Cl)c4oc(CNC(=O)/C=C/c5ccc(N)nc5)cc4c3)cc2)CC1 [Compound 602, (E)-3-(6-aminopyridin-3-yl)-N-((7-chloro-5-(4-(4-hydroxy-4-methylpiperidine-1-carbonyl)phenyl)benzofuran-2-yl)methyl)acrylamide]
- IC50 ([1]; read-out: MTT Assay IC50 3T3): > 10 µM
- IC50 [2, 6]: 0.1 to 5 µM
- IC50 ([3]; read-out: MTT Assay IC50 Z-138): 0.1 to 5 µM

Structure (SMILES): Nc1ccc(/C=C/C(=O)NCc2cc3cc(-c4ccc(C(=O)N5CCC(F)(F)CC5)cc4)cc(Cl)c3o2)cn1 [Compound 596, (E)-3-(6-aminopyridin-3-yl)-N-((7-chloro-5-(4-(4,4-difluoropiperidine-1-carbonyl)phenyl)benzofuran-2-yl)methyl)acrylamide]
- IC50 ([1]; read-out: MTT Assay IC50 3T3): > 10 µM
- IC50 [2, 6]: 0.1 to 5 µM
- IC50 ([3]; read-out: MTT Assay IC50 Z-138): 0.1 to 5 µM

Structure (SMILES): Nc1ccc(/C=C/C(=O)NCc2cc3cc(-c4ccc(C(=O)N5CCC(F)(F)CC5)cn4)cc(OC(F)(F)F)c3o2)cn1 [Compound 663, (E)-3-(6-aminopyridin-3-yl)-N-((5-(5-(4,4-difluoropiperidine-1-carbonyl)pyridin-2-yl)-7-(trifluoromethoxy)benzofuran-2-yl)methyl)acrylamide]
- IC50 ([1]; read-out: MTT Assay IC50, 3T3): 0.1 to 5 µM
- IC50 [2, 4]: < 0.1 µM
- IC50 [3, 5]: < 0.1 µM

Structure (SMILES): Nc1ccc(/C=C/C(=O)NCc2cc3cc(-c4ccc(C(=O)N5CCC(F)(F)CC5)cc4F)cc(-c4ccc(F)cc4)c3o2)cn1 [Compound 751, (E)-3-(6-aminopyridin-3-yl)-N-((5-(4-(4,4-difluoropiperidine-1-carbonyl)-2-fluorophenyl)-7-(4-fluorophenyl)benzofuran-2-yl)methyl)acrylamide]
- IC50 ([1]; read-out: MTT Assay IC50, 3T3): 0.1 to 5 µM
- IC50 [2, 4]: < 0.1 µM
- IC50 [3, 5]: < 0.1 µM

Structure (SMILES): COc1cc(-c2ccc(C(=O)N3CCNCC3)cn2)cc2cc(CNC(=O)/C=C/c3ccc(N)nc3)oc12 [Compound 641, (E)-3-(6-aminopyridin-3-yl)-N-((7-methoxy-5-(5-(piperazine-1-carbonyl)pyridin-2-yl)benzofuran-2-yl)methyl)acrylamide]
- IC50 ([1]; read-out: MTT Assay IC50 3T3): > 10 µM
- IC50 [2, 6]: < 0.1 µM
- IC50 ([3]; read-out: MTT Assay IC50 Z-138): < 0.1 µM

Structure (SMILES): CN(C)c1ccc(/C=C/C(=O)NCc2cc3cc(-c4ccc(C(=O)N5CCOCC5)cc4)cc(Cl)c3o2)cn1 [Compound 551, (E)-N-((7-Chloro-5-(4-(morpholine-4-carbonyl)phenyl)benzofuran-2-yl)methyl)-3-(6-(dimethylamino)pyridin-3-yl)acrylamide]
- IC50 ([1]; read-out: MTT Assay IC50 3T3): > 10 µM
- IC50 [2, 6]: > 10 µM
- IC50 ([3]; read-out: MTT Assay IC50 Z-138): > 10 µM

Structure (SMILES): Nc1ccc(/C=C/C(=O)NCCc2cc3cc(-c4ccc(C(=O)N5CCC(F)(F)CC5)cc4)cc(C(F)(F)F)c3o2)cn1 [Compound 691, (E)-3-(6-aminopyridin-3-yl)-N-(2-(5-(4-(4,4-difluoropiperidine-1-carbonyl)phenyl)-7-(trifluoromethyl)benzofuran-2-yl)ethyl)acrylamide]
- IC50 ([1]; read-out: MTT Assay IC50, 3T3): 0.1 to 5 µM
- IC50 [2, 4]: 0.1 to 5 µM
- IC50 [3, 5]: < 0.1 µM

Structure (SMILES): CC1(F)CCN(C(=O)c2ccc(-c3cc(C(F)(F)F)c4oc(CNC(=O)/C=C/c5ccc(N)nc5)cc4c3)cc2)C1 (single isomer, unassigned) [Compound 715, (E)-3-(6-aminopyridin-3-yl)-N-((5-(4-(3-fluoro-3-methylpyrrolidine-1-carbonyl)phenyl)-7-(trifluoromethyl)benzofuran-2-yl)methyl)acrylamide]
- IC50 ([1]; read-out: MTT Assay IC50, 3T3): > 10 µM
- IC50 [2, 4]: 0.1 to 5 µM
- IC50 [3, 5]: 0.1 to 5 µM

Structure (SMILES): Nc1ccc(/C=C/C(=O)NCc2cc3cc(-c4ccc5occc5c4)cc(-c4ccc(F)cc4F)c3o2)cn1 [Compound 759, (E)-3-(6-aminopyridin-3-yl)-N-((7-(2,4-difluorophenyl)-5,5′-bibenzofuran-2-yl)methyl)acrylamide]
- IC50 ([1]; read-out: MTT Assay IC50, 3T3): > 10 µM
- IC50 [2, 4]: 0.1 to 5 µM
- IC50 [3, 5]: < 0.1 µM

Structure (SMILES): Nc1ccc(/C=C/C(=O)NCc2cc3cc(-c4ccc(NC(=O)N5CCOCC5)cc4)cc(Cl)c3o2)cn1 [Compound 582, (E)-N-(4-(2-((3-(6-aminopyridin-3-yl)acrylamido)methyl)-7-chlorobenzofuran-5-yl)phenyl)morpholine-4-carboxamide]
- IC50 ([1]; read-out: MTT Assay IC50 3T3): > 10 µM
- IC50 [2, 6]: 5 to 10 µM
- IC50 ([3]; read-out: MTT Assay IC50 Z-138): 5 to 10 µM

Structure (SMILES): Nc1ccc(/C=C/C(=O)NCc2cc3cc(-c4ccc(C(=O)CN5CCOCC5)cc4)cc(Cl)c3o2)cn1 [Compound 507, (E)-3-(6-aminopyridin-3-yl)-N-((7-chloro-5-(4-(2-morpholinoacetyl)phenyl)benzofuran-2-yl)methyl)acrylamide]
- IC50 ([1]; read-out: MTT Assay IC50 3T3): > 10 µM
- IC50 [2, 6]: 0.1 to 5 µM
- IC50 ([3]; read-out: MTT Assay IC50 Z-138): 0.1 to 5 µM

Structure (SMILES): Nc1ccc(/C=C/C(=O)NCc2cc3cc(-c4ccc(C(=O)N5CCC(C(F)(F)F)CC5)cn4)cc(C(F)(F)F)c3o2)cn1 [Compound 615, (E)-3-(6-aminopyridin-3-yl)-N-((7-(trifluoromethyl)-5-(5-(4-(trifluoromethyl)piperidine-1-carbonyl)pyridin-2-yl)benzofuran-2-yl)methyl)acrylamide]
- IC50 ([1]; read-out: MTT Assay IC50 3T3): > 10 µM
- IC50 [2, 6]: 0.1 to 5 µM
- IC50 ([3]; read-out: MTT Assay IC50 Z-138): 0.1 to 5 µM

Structure (SMILES): Nc1ccc(/C=C/C(=O)NCc2cc3cc(-c4ccc(C(F)(F)F)cc4)cc(-c4ccc(F)cc4)c3o2)cn1 [Compound 692, (E)-3-(6-aminopyridin-3-yl)-N-((7-(4-fluorophenyl)-5-(4-(trifluoromethyl)phenyl)benzofuran-2-yl)methyl)acrylamide]
- IC50 ([1]; read-out: MTT Assay IC50, 3T3): > 10 µM
- IC50 [2, 4]: 0.1 to 5 µM
- IC50 [3, 5]: 0.1 to 5 µM

Structure (SMILES): O=C(/C=C/c1cccnc1)NCc1cc2cc(-c3ccc(C(=O)N4CCC(F)(F)CC4)cn3)cc(C(F)(F)F)c2o1 [Compound 671, (E)-N-((5-(5-(4,4-difluoropiperidine-1-carbonyl)pyridin-2-yl)-7-(trifluoromethyl)benzofuran-2-yl)methyl)-3-(pyridin-3-yl)acrylamide]
- IC50 ([1]; read-out: MTT Assay IC50, 3T3): 0.1 to 5 µM
- IC50 [2, 4]: 0.1 to 5 µM
- IC50 [3, 5]: 0.1 to 5 µM

Structure (SMILES): O=C(/C=C/c1cccnc1)NCc1cc2cc(-c3ccc(C(=O)N4CCC(F)(F)CC4)cc3)cc(-c3ccc(F)cc3)c2o1 [Compound 729]
- IC50 ([1]; read-out: MTT Assay IC50, 3T3): < 0.1 µM
- IC50 [2, 4]: < 0.1 µM
- IC50 [3, 5]: < 0.1 µM

Structure (SMILES): Nc1ccc(/C=C/C(=O)NCc2cc3cc(-c4ccc(C(=O)N5CCC(F)(F)CC5)cc4)cc(-c4cccnc4)c3o2)cn1 [Compound 724, (E)-3-(6-aminopyridin-3-yl)-N-((5-(4-(4,4-difluoropiperidine-1-carbonyl)phenyl)-7-(pyridin-3-yl)benzofuran-2-yl)methyl)acrylamide]
- IC50 ([1]; read-out: MTT Assay IC50, 3T3): 0.1 to 5 µM
- IC50 [2, 4]: < 0.1 µM
- IC50 [3, 5]: < 0.1 µM

Reference: patent US12331040B2 (Karyopharm Therapeutics Inc., priority 2013, dated 2025)
